Reference: PMC13198932, “Pyrazolone-based ERO1 inhibitors in ERO1-driven triple-negative breast cancer and SEPN1-related myopathy: Structure–activity relationship and therapeutic potential” (Pharmacological research, 2025)

How the values were obtained:
[1] = molecular target: T1, ERO1 in E0771 cells (Mus musculus, UniProt Q8R180); experiment: ERO1 redox state by non-reducing immunoblot in E0771 cells; assay type: cell-based, murine; settings: E0771, Fig. 4F
T1 construct: endogenous in cells; host or cells: E0771
T1 sequence (Q8R180 24-464): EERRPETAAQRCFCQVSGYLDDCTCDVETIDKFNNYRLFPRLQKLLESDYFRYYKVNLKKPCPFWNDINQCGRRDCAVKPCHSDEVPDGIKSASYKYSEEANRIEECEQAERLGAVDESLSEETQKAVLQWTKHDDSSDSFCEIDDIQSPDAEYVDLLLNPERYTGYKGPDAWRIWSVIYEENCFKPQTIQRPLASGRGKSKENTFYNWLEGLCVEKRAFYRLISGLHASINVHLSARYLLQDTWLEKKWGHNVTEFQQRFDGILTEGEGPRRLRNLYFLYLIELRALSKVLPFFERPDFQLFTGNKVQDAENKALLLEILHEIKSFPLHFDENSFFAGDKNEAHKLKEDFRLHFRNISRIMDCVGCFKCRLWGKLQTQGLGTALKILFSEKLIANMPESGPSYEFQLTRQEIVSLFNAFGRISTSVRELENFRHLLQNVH
Procedure: MDAMB231 and E0771 cells were maintained in Dulbecco’s Modified Eagle’s Medium supplemented with 1 % fetal bovine serum and seeded at 70 % confluency in six-well plates one day prior to the experiment. Cells were treated with DTT (10 mM) and/or ERO1A inhibitors for 1–5 h. At the time of collection, phosphate-buffered saline containing 10 mM NEM was added, and cells were incubated on ice for 10 min in lysis buffer (50 mM Tris-HCl, pH 7.4; 150 mM NaCl; 1 % Triton X-100; 0.1 % SDS; 1 % sodium deoxycholate; protease inhibitors; and 10 mM NEM). Protein concentrations were determined using the BCA assay, and equal amounts of protein were separated by non-reducing SDS-PAGE followed by immunoblotting with a polyclonal antibody against ERO1A [33].

[2] = molecular target: T2, ERO1 in WT and SEPN1 KO myotubes (Mus musculus, UniProt Q8R180); experiment: ERO1 redox state by non-reducing immunoblot in WT and SEPN1 KO myotubes; assay type: cell-based, mice; settings: 3 h treatment
T2 construct: endogenous in cells; host or cells: primary myotubes from WT and SEPN1 KO C57BL/6 mice
T2 sequence (Q8R180 24-464): T1 sequence (Q8R180 24-464)
Procedure: Muscle stem cells were isolated from muscles of 1-month-old wild-type (WT) and SEPN1 knockout (KO) mice using a tissue dissociation protocol with the gentleMACS™ Octo Dissociator with Heaters (Miltenyi Biotec, Bergisch Gladbach, Germany), followed by magnetic depletion. To generate myotubes, cells were cultured on Matrigel-coated Ibidi μ-Slide 8 well chambers (Cat. No. 80826, Ibidi GmbH, Gräfelfing, Germany) in DMEM (EuroClone, Pero, Milan, Italy) supplemented with 20 % fetal bovine serum (EuroClone), 3 % chick embryo extract (Cat. 11485015, Fisher Scientific SAS), 10 ng/mL basic fibroblast growth factor (Cat. 13256029, Life Technologies Europe BV), 1 % GlutaMAX (Gibco; Thermo Fisher Scientific, Waltham, MA, USA), and 1 % penicillin-streptomycin (EuroClone).
After 48 h of proliferation, cells were cultured for an additional 2 days in medium containing 2 % horse serum (EuroClone) to induce differentiation, then harvested for analysis. For ERO1 redox state, cells were treated for 3 h with either EN460 or I29, harvested and followed by a non-reducing ERO1 Immunoblot.

[3] = system: E0771 cells; experiment: MTS assay of metabolic activity in E0771 cells; assay type: cell-based, murine; settings: E0771, dose-response, 24 h, 1 % FBS
Procedure: Six thousand cells (MDAMB231 and E0771) per well were seeded in 96-well plates and cultured in medium containing 1 % FBS. Cells were treated with varying concentrations of compounds and, after 24 h, incubated with MTS [3-(4,5-dimethylthiazol-2-yl)-5-(3-carboxymethoxyphenyl)-2-(4 sulfophenyl)2Htetrazolium]and PMS (phenazine methosulfate), following the instructions of the CellTiter 96® Aqueous Non-Radioactive Cell Proliferation Assay (Promega). Measurements were performed using a TECAN Infinite M200 plate reader with […] at 490 nm.

## O=C1/C(=C/c2ccc(-c3ccccc3)o2)C(C(F)(F)F)=NN1c1ccccc1F [I29]
[1]
  ERO1 redox assay compared with EN460: superior efficacy of I29 over EN460
[2]
  reduced state of ERO1 compared with EN460: more effective than EN460
[3]
  metabolic activity (MTS assay): superior efficacy of I29 over EN460
